Experiments:
MDA-MB-231 = test: MTS assay, MDA-MB-231; type: cell-based; conditions: Homo sapiens, 72 hours, 1 Percent FBS
Procedure: (§1) Cells were maintained at 37° C., 5% CO2 in DMEM media supplemented with 1% fetal bovine serum, penicillin/streptomycin and fungizone (Invitrogen). Cells were seeded into 96-well tissue culture plates at 3000 per well and cultured at 37° C. for 18 hours. Test compounds were dissolved and diluted to 300× in DMSO then diluted 1:40 in DMEM. Cells were incubated with test compounds for 72 hours followed by incubation with tetrazolium compound (3-(4,5-dimethylthiazol-2-yl)-5-(3-carboxymethoxyphenyl)-2-(4-sulfophenyl)-2H-tetrazolium, inner salt; MTS) and the electron coupling reagent, phenazine methosulfate (PMS) for 4 hours. […] The ability of compounds to inhibit cell growth in this assay is correlated with the reduction of dehydrogenase enzyme activity found in metabolically active cells. The measurement of the absorbance of the formazan was assessed using a Victor (Perkin Elmer) microplate reader at 492 nm. The calculated IC50 value is the concentration of the test compound that causes a 50% decrease in the absorbance.

DLD-1 = test: MTS assay, DLD-1; type: cell-based; conditions: Homo sapiens, 72 hours, 1 Percent FBS
Procedure: as §1

Structure (SMILES): CNc1nccc(-c2cc(NC(=O)CN3CCC(N4CCN(C)CC4)CC3)c3cc(OC)ccc3c2)n1 [Compound 45, N-{7-methoxy-3-[2-(methylamino)pyrimidin-4-yl]-1-naphthyl}-2-[4-(4-methylpiperazin-1-yl)piperidin-1-yl]acetamide]
- inhibition at 10 µM (MDA-MB-231): 99%
- inhibition at 10 µM (DLD-1): 98%

Structure (SMILES): CNc1nccc(-c2cc(NC(=O)CNc3nc4ccccc4n3C)c3cc(OC)ccc3c2)n1 [Compound 58, N-{7-methoxy-3-[2-(methylamino)pyrimidin-4-yl]-1-naphthyl}-N~2~-(1-methyl-1H-benzimidazol-2-yl)glycinamide]
- inhibition at 10 µM (MDA-MB-231): 99%
- inhibition at 10 µM (DLD-1): 98%

Structure (SMILES): COc1ccc2cc(-c3ccnc(NCc4cncn4C)n3)cc(N3CCOCC3)c2c1 [Compound 16, 4-(6-methoxy-4-morpholin-4-yl-2-naphthyl)-N-[(1-methyl-1H-imidazol-5-yl)methyl]pyrimidin-2-amine]
- inhibition at 10 µM (MDA-MB-231): 96%
- inhibition at 10 µM (DLD-1): 98%

Structure (SMILES): COc1ccc(CCNc2nccc(-c3cc(N4CCNCC4)c4cc(OC)ccc4c3)n2)cc1 [Compound 134, N-[2-(4-methoxyphenyl)ethyl]-4-(6-methoxy-4-piperazin-1-yl-2-naphthyl)pyrimidin-2-amine]
- inhibition at 10 µM (MDA-MB-231): 98%
- inhibition at 10 µM (DLD-1): 97%

Structure (SMILES): CNc1nccc(-c2cc(NC3CCN(c4cc(N)ncn4)CC3)c3cc(OC)ccc3c2)n1 [Compound 156, 4-(4-{[1-(6-aminopyrimidin-4-yl)piperidin-4-yl]amino}-6-methoxy-2-naphthyl)-N-methylpyrimidin-2-amine]
- inhibition at 10 µM (DLD-1): 34%

Structure (SMILES): COc1ccc2cc(-c3ccnc(NCc4ccc(OC)c(OC)c4)n3)cc(N3CCOCC3)c2c1 [Compound 9, N-(3,4-dimethoxybenzyl)-4-(6-methoxy-4-morpholin-4-yl-2-naphthyl)pyrimidin-2-amine]
- inhibition at 10 µM (MDA-MB-231): 82%
- inhibition at 10 µM (DLD-1): 99%

Structure (SMILES): CNc1nccc(-c2cc(NC(=O)CN3CCN(c4ccc(C(F)(F)F)cn4)CC3)c3cc(OC)ccc3c2)n1 [Compound 55, N-{7-methoxy-3-[2-(methylamino)pyrimidin-4-yl]-1-naphthyl}-2-{4-[5-(trifluoromethyl)pyridin-2-yl]piperazin-1-yl}acetamide]
- inhibition at 10 µM (MDA-MB-231): 65%

Structure (SMILES): CCN1CCCC(Nc2nccc(-c3cc(N4CCOCC4)c4cc(OC)ccc4c3)n2)C1 (centres unmarked) [Compound 14, N-(1-ethylpiperidin-3-yl)-4-(6-methoxy-4-morpholin-4-yl-2-naphthyl)pyrimidin-2-amine]
- inhibition at 10 µM (MDA-MB-231): 99%
- inhibition at 10 µM (DLD-1): 98%

Structure (SMILES): COc1ccc2cc(-c3ccnc(NCCN4CCCC4)n3)cc(N3CCNCC3)c2c1 [Compound 133, 4-(6-methoxy-4-piperazin-1-yl-2-naphthyl)-N-(2-pyrrolidin-1-ylethyl)pyrimidin-2-amine]
- inhibition at 10 µM (MDA-MB-231): 98%
- inhibition at 10 µM (DLD-1): 97%

Structure (SMILES): CCN(CC)CCCN1CCN(CC(=O)Nc2cc(-c3ccnc(NC)n3)cc3ccc(OC)cc23)CC1 [Compound 36, 2-{4-[3-(diethylamino)propyl]piperazin-1-yl}-N-{7-methoxy-3-[2-(methylamino)pyrimidin-4-yl]-1-naphthyl}acetamide]
- inhibition at 10 µM (MDA-MB-231): 92%
- inhibition at 10 µM (DLD-1): 87%

Structure (SMILES): COc1ccc2cc(-c3ccnc(NCCc4cccc(OC)c4OC)n3)cc(N3CCOCC3)c2c1 [Compound 17, N-[2-(2,3-dimethoxyphenyl)ethyl]-4-(6-methoxy-4-morpholin-4-yl-2-naphthyl)pyrimidin-2-amine]
- inhibition at 10 µM (DLD-1): 31%

Structure (SMILES): CNc1nccc(-c2cc(NC(=O)CN3CCN(CCOC)CC3)c3cc(OC)ccc3c2)n1 [Compound 59, 2-[4-(2-methoxyethyl)piperazin-1-yl]-N-{7-methoxy-3-[2-(methylamino)pyrimidin-4-yl]-1-naphthyl}acetamide]
- inhibition at 10 µM (MDA-MB-231): 98%
- inhibition at 10 µM (DLD-1): 97%

Structure (SMILES): CNc1nccc(-c2cc(NC(=O)CNCCCN3CCN(C)CC3)c3cc(OC)ccc3c2)n1 [Compound 69, N-{7-methoxy-3-[2-(methylamino)pyrimidin-4-yl]-1-naphthyl}-N~2~-[3-(4-methylpiperazin-1-yl)propyl]glycinamide]
- inhibition at 10 µM (MDA-MB-231): 40%

Structure (SMILES): COc1ccc(CNc2nccc(-c3cc(NC(=O)OC(C)(C)C)c4cc(OC)ccc4c3)n2)cc1 [Compound 104, tert-butyl (7-methoxy-3-{2-[(4-methoxybenzyl)amino]pyrimidin-4-yl}-1-naphthyl)carbamate]
- inhibition at 10 µM (MDA-MB-231): 30%
- inhibition at 10 µM (DLD-1): 48%

Structure (SMILES): CCN(CC)CCCCNCC(=O)Nc1cc(-c2ccnc(NC)n2)cc2ccc(OC)cc12 [Compound 73, N~2~-[4-(diethylamino)butyl]-N-{7-methoxy-3-[2-(methylamino)pyrimidin-4-yl]-1-naphthyl}glycinamide]
- inhibition at 10 µM (MDA-MB-231): 98%
- inhibition at 10 µM (DLD-1): 98%

Structure (SMILES): COc1ccc2cc(-c3ccnc(NCCN(C)C)n3)cc(N3CCOCC3)c2c1 [Compound 8, N′-[4-(6-methoxy-4-morpholin-4-yl-2-naphthyl)pyrimidin-2-yl]-N,N-dimethylethane-1,2-diamine]
- inhibition at 10 µM (MDA-MB-231): 45%

Structure (SMILES): CNc1nccc(-c2cc(NC3CCN(c4cc(Cl)ncn4)CC3)c3cc(OC)ccc3c2)n1 [Compound 159, 4-(4-{[1-(6-chloropyrimidin-4-yl)piperidin-4-yl]amino}-6-methoxy-2-naphthyl)-N-methylpyrimidin-2-amine]
- inhibition at 10 µM (MDA-MB-231): 42%
- inhibition at 10 µM (DLD-1): 93%

Structure (SMILES): COc1ccc2cc(-c3ccnc(NCCc4ccccn4)n3)cc(N3CCOCC3)c2c1 [Compound 19, 4-(6-methoxy-4-morpholin-4-yl-2-naphthyl)-N-(2-pyridin-2-ylethyl)pyrimidin-2-amine]
- inhibition at 10 µM (DLD-1): 30%

Structure (SMILES): CNc1nccc(-c2cc(NC(=O)CN3CCN(c4ccncc4)CC3)c3cc(OC)ccc3c2)n1 [Compound 70, N-{7-methoxy-3-[2-(methylamino)pyrimidin-4-yl]-1-naphthyl}-2-(4-pyridin-4-ylpiperazin-1-yl)acetamide]
- inhibition at 10 µM (MDA-MB-231): 37%

Structure (SMILES): CNc1nccc(-c2cc(NC3CCN(c4cc(Cl)nc(C)n4)CC3)c3cc(OC)ccc3c2)n1 [Compound 162, 4-(4-{[1-(6-chloro-2-methylpyrimidin-4-yl)piperidin-4-yl]amino}-6-methoxy-2-naphthyl)-N-methylpyrimidin-2-amine]
- inhibition at 10 µM (DLD-1): 42%

Structure (SMILES): COc1ccc2cc(-c3ccnc(NCCc4ccccc4OC)n3)cc(N3CCOCC3)c2c1 [Compound 15, 4-(6-methoxy-4-morpholin-4-yl-2-naphthyl)-N-[2-(2-methoxyphenyl)ethyl]pyrimidin-2-amine]
- inhibition at 10 µM (DLD-1): 90%

Structure (SMILES): CNc1nccc(-c2cc(NC(=O)CN3CCN(Cc4ccc(Cl)cc4)CC3)c3cc(OC)ccc3c2)n1 [Compound 66, 2-[4-(4-chlorobenzyl)piperazin-1-yl]-N-{7-methoxy-3-[2-(methylamino)pyrimidin-4-yl]-1-naphthyl}acetamide]
- inhibition at 10 µM (DLD-1): 69%

Structure (SMILES): COc1ccc2cc(-c3ccnc(NCc4ccccn4)n3)cc(NC(=O)OC(C)(C)C)c2c1 [Compound 102, tert-butyl (7-methoxy-3-{2-[(pyridin-2-ylmethyl)amino]pyrimidin-4-yl}-1-naphthyl)carbamate]
- inhibition at 10 µM (DLD-1): 43%

Structure (SMILES): COc1ccc2cc(-c3ccnc(NCc4ccccc4C)n3)cc(N3CCOCC3)c2c1 [Compound 20, 4-(6-methoxy-4-morpholin-4-yl-2-naphthyl)-N-(2-methylbenzyl)pyrimidin-2-amine]
- inhibition at 10 µM (DLD-1): 66%

Structure (SMILES): COc1ccc2cc(-c3ccnc(NCc4cccc(C(F)(F)F)c4)n3)cc(N3CCOCC3)c2c1 [Compound 13, 4-(6-methoxy-4-morpholin-4-yl-2-naphthyl)-N-[3-(trifluoromethyl)benzyl]pyrimidin-2-amine]
- inhibition at 10 µM (DLD-1): 98%

Structure (SMILES): COc1cc(CCNc2nccc(-c3cc(N4CCOCC4)c4cc(OC)ccc4c3)n2)cc(OC)c1 [Compound 27, N-[2-(3,5-dimethoxyphenyl)ethyl]-4-(6-methoxy-4-morpholin-4-yl-2-naphthyl)pyrimidin-2-amine]
- inhibition at 10 µM (DLD-1): 87%

Structure (SMILES): CNc1nccc(-c2cc(NC(=O)CNc3ccncc3)c3cc(OC)ccc3c2)n1 [Compound 56, N-{7-methoxy-3-[2-(methylamino)pyrimidin-4-yl]-1-naphthyl}-N~2~-pyridin-4-ylglycinamide]
- inhibition at 10 µM (MDA-MB-231): 50%

Structure (SMILES): CNc1nccc(-c2cc(NC3CCN(c4ncnc5scc(C)c45)CC3)c3cc(OC)ccc3c2)n1 [Compound 160, 4-(6-methoxy-4-{[1-(5-methylthieno[2,3-d]pyrimidin-4-yl)piperidin-4-yl]amino}-2-naphthyl)-N-methylpyrimidin-2-amine]
- inhibition at 10 µM (DLD-1): 50%

Structure (SMILES): COc1ccc2cc(-c3ccnc(NCc4ccc(OC)c(OC)c4)n3)cc(NC(=O)OC(C)(C)C)c2c1 [Compound 87, tert-butyl (3-{2-[(3,4-dimethoxybenzyl)amino]pyrimidin-4-yl}-7-methoxy-1-naphthyl)carbamate]
- inhibition at 10 µM (DLD-1): 45%

Structure (SMILES): COc1ccc2cc(-c3ccnc(NCc4cccc(C(F)(F)F)c4)n3)cc(NC(=O)OC(C)(C)C)c2c1 [Compound 90, tert-butyl [7-methoxy-3-(2-{[3-(trifluoromethyl)benzyl]amino}pyrimidin-4-yl)-1-naphthyl]carbamate]
- inhibition at 10 µM (MDA-MB-231): 43%

Structure (SMILES): COc1ccc2cc(-c3ccnc(NCCc4ccc(OC)c(OC)c4)n3)cc(NC(=O)OC(C)(C)C)c2c1 [Compound 95, tert-butyl [3-(2-{[2-(3,4-dimethoxyphenyl)ethyl]amino}pyrimidin-4-yl)-7-methoxy-1-naphthyl]carbamate]
- inhibition at 10 µM (MDA-MB-231): 39%

Structure (SMILES): CNc1nccc(-c2cc(NC(=O)CN3CCN(CCCN4CCOCC4)CC3)c3cc(OC)ccc3c2)n1 [Compound 77, N-{7-methoxy-3-[2-(methylamino)pyrimidin-4-yl]-1-naphthyl}-2-[4-(3-morpholin-4-ylpropyl)piperazin-1-yl]acetamide]
- inhibition at 10 µM (MDA-MB-231): 41%
